Test results: patent US20230024521A1, “JAK INHIBITORS” (Vimalan Biosciences, Inc., priority 2019, published 2023)
Like-named read-outs stand apart in the source and are kept apart here.

Legend:
[1] = tested on: JAK2: GM-CSF stimulated STAT5 phosphorylation; assay: Co-stimulation assay in lysed whole blood; JAK2: GM-CSF stimulated STAT5 phosphorylation; type: cell-based, human
Experimental: Example C: Co-Stimulation Assay in Lysed Whole Blood; JAK2: GM-CSF Stimulated STAT5 Phosphorylation and JAK1/TYK2 Stimulated STAT1 Phosphorylation Assay
Human Blood Lysis using abcam's RBC lysis buffer
Dilute RBC lysis buffer to 1× in distilled water. Add 2 mL blood to 38 mL of 1×RBC-lysis buffer. Incubate for 15 mins at RT, in dark. Spin at 300 g, 5 mins, to collect the pellet. Re-lyse if necessary. Re-suspend pellet in 5 mL of cRPMI.
Aliquot 80 μL of lysed human blood in to wells of 96 deep-well plate. Add 10 μl of (10× conc.) of different concentrations of compounds to all wells except controls (unstained and unstimulated) and mix it with the help of 100 uL multichannel Add 10 uL of RPMI media in controls. For dilution of compounds and dilution range please refer Appendix. Incubate on water bath or CO2 incubator for 1 hour at 37° C. Add 10 μl of (10× conc.) of cytokine mix (GM-CSF and IFNa) (final conc. 10 ng/mL of GM-CSF and 100 ng/mL of IFNa) to each well except unstimulated and unstained controls and incubate further for 20 minutes on water bath at 37° C.
Add 900 μL of prewarmed 1× Fix/Lyse solution (Appendix) and mix it properly using 1000 μl multichannel, incubate further on water bath at 37° C. for 10 minutes (which includes time of addition). Centrifuge at 800×g for 5 minutes at 40° C.; remove 900 uL of supernatant and add 900 μL of 1×PBS. Centrifuge at 800×g for 5 minutes at 40° C., remove 900 μL of supernatant. Wash one more time with 900 μL of PBS (optional) and resuspend pellets in 100 uL of PBS.
Disrupt the pellet by gentle tapping and resuspend in 1000 μL of BD Phosflow Perm Buffer III and incubate plate on ice for 30 minutes. Centrifuge plate at 800×g for 5 minutes at 40° C. Wash two more times with 1000 μL of BD Pharmingen Stain Buffer.
Disrupt the pellet by gentle tapping. Resuspend pellets in 100 uL of Stain Buffer and add 5 μL of pSTAT5_AF488 Ab and 5 uL of pSTAT1_PE in all wells except unstained control and mix properly using 200 μl multichannel, incubate overnight at […]. Add 900 μL of wash buffer and centrifuge at 1800 rpm for 3 minutes at […]. Wash one more time with 1000 μL of BD Pharmingen Stain Buffer. Finally resuspend the pellet in 300 uL of BD Pharmingen Stain Buffer. Transfer the cells to 96-well v-bottom plate and acquire the cells in Beckman Coulter CytExpert. Acquiring cells in Flow Cytometer: Keep the threshold value to 250 and cell concentration should not exceed 100-500 cells/4. Acquire at least 5,000-10,000 cells.
RPMI 1640 Complete Medium: RPMI 1640 media+10% FBS.
Cytokine dilution: 1) GM-CSF Stock at 100 ug/mL. Prepare an intermediate dilution of 1 ug/mL by adding 2 uL of stock into 198 uL of cRPMI. Further dilute to 100 ng/mL by adding 100 uL of the intermediate stock to 900 uL of cRPMI. 2) IFNa Stock at 200 ug/mL. Dilute IFNa stock 1:200 by adding 5 uL of stock into the 1000 uL of 100 ng/mL GM-CSF working stock as above to give a combined working stock of 1000 ng/mL of IFNa and 100 ng/mL GM-CSF (10×). Keep it on ice until used.
Lyse/Fix buffer preparation: Dilute 5× Lyse/Fix buffer to 1× using MQ water and keep at 37° C. until used.
BD Phosflow perm buffer III: Keep on ice/fridge

TYK2 = TYK2 (Homo sapiens, UniProt P29597); assay: JAK/TYK2 assay (Kinase Glo luminescence): Tyk2 kinase assay; type: biochemical; conditions: 9 nM enzyme, 2 uM ATP, 30 uM IRS-1, 1 hr; read-out: Tyk2 kinase assay: IC50 Geomean
Experimental: (§1) Example A: JAK/TYK2 Assay 10 mM test compound stock or 1 mM control compound stock (tofocitinib, ruxolitinib or staurosporine) in DMSO was diluted to 0.4 mM in DMSO. A 3-fold series dilution was then performed in DMSO to generate 10 different compound concentrations. The assay was carried out in 384-well white plate. 0.5 μL of 40× compound DMSO solution at different concentrations was mixed with 10 uL 2× enzyme prepared in reaction buffer (20 mM HEPES, 10 mM MgCl2, 0.01% Tween, 1 mM DTT, pH 7.5). 10 uL 2× substrate mixture prepared in reaction buffer was then added to start the reaction. A short spin was done to settle down all solutions to the bottom of the plate. Final concentrations of test compound in the reaction mixture were 10000, 3333, 1111, 370, 123, 41.2, 13.7, 4.57, 1.52 and 0.51 nM, Concentrations of control compound were ten times less. Enzymatic reaction was conducted at 25° C. for 1-2 hours. 10 uL of Kinase Glo Reagents was added to stop the reaction and generate the luminescent signal which was measured using Envision. Luminescence signal was inversely related to kinase activity. […] The mixture without any compound was the positive control. [table]

JAK1 = JAK1 (Homo sapiens, UniProt P23458); assay: JAK/TYK2 assay (Kinase Glo luminescence): Jak1 kinase assay; type: biochemical; conditions: 7.5 nM enzyme, 2 uM ATP, 30 uM IRS-1, 1 hr
Experimental: as §1

[2] = lysed human whole blood, GM-CSF 10 ng/mL (with IFNa 100 ng/mL), pSTAT5 by flow cytometry, read-out: GMCSF/J2/pS5: GeoMean
[3] = Homo sapiens, read-out: GMCSF/J2/pS5: GeoMean (nM)

JAK1, sequence (P23458 whole entry, species assumed): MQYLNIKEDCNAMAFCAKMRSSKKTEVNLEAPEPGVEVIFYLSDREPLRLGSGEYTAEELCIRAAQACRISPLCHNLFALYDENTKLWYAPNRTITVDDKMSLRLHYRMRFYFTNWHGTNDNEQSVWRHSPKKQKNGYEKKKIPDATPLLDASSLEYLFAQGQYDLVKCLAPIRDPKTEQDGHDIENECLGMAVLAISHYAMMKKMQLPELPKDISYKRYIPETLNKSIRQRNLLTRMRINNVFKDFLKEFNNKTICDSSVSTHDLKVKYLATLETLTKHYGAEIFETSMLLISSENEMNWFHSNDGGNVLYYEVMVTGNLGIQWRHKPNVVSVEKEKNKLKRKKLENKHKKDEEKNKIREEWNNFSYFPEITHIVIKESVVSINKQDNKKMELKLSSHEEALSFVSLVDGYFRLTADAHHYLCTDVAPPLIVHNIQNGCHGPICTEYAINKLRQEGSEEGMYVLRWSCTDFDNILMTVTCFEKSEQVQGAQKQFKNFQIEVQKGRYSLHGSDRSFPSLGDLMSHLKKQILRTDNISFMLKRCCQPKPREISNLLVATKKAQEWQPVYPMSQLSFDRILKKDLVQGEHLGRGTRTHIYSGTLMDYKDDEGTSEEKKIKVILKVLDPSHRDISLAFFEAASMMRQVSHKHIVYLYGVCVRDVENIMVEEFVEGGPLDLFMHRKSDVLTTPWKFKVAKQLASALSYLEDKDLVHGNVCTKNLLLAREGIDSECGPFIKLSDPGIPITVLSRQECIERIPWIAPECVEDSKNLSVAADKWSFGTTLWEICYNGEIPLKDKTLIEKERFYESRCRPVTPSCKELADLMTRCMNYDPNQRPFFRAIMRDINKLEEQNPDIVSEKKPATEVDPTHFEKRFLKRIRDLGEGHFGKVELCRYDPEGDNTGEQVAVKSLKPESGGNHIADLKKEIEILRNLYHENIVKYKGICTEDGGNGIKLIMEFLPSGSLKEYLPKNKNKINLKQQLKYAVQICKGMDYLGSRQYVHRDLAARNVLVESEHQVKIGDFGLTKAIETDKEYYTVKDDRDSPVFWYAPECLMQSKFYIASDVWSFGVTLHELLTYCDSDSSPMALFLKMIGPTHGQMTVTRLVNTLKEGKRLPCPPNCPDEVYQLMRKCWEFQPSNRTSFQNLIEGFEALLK
TYK2, sequence (P29597 whole entry, species assumed): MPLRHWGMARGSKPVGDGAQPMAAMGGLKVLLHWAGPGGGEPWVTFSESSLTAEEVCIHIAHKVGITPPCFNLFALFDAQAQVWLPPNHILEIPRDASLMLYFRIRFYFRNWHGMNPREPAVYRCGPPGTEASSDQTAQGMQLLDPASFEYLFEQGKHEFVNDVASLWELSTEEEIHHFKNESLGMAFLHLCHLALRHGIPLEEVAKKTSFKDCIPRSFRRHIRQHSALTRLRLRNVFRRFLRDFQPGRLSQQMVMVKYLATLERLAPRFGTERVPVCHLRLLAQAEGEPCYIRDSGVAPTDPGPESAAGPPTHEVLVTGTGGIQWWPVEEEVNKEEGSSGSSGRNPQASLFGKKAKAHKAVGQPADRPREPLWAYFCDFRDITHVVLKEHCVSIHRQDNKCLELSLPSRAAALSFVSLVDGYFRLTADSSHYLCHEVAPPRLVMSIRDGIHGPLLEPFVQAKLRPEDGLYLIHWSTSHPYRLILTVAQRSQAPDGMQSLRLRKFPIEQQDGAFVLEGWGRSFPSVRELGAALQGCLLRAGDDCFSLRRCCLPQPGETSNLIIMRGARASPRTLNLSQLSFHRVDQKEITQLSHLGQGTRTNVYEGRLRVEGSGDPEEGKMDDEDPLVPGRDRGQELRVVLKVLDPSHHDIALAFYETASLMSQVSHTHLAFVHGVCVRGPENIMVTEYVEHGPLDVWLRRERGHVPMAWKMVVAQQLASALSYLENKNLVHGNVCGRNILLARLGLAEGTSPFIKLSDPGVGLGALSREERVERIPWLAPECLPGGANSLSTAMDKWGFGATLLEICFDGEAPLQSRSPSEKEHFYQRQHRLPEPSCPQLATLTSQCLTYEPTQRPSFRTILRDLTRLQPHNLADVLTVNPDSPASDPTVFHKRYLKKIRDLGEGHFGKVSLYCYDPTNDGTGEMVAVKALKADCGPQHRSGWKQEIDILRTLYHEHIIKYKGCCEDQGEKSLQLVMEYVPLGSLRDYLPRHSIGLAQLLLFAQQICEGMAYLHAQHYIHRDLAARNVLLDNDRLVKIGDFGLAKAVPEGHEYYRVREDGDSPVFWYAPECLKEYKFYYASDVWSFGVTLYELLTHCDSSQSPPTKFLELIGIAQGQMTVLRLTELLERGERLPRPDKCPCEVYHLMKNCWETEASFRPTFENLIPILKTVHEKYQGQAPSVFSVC

Row | IC50 [1, 2] | Structure (SMILES) | IC50 (TYK2) | IC50 (JAK1) | IC50 [1, 3]
1 | 100 to 1000 nM | CC[C@H](Cn1ccc2cnc(Nc3cnn(CC(N)=O)c3)nc21)C(C)C [Example 1, (S)-2-(4-((7-(2-ethyl-3-methylbutyl)-7H-pyrrolo[2,3-d]pyrimidin-2-yl)amino)-1H-pyrazol-1-yl) acetamide] | < 100 nM | < 100 nM | –
2 | – | CC[C@H](Cn1ccc2cnc(Nc3cnn(CC(=O)N4CCOC4=O)c3)nc21)C(C)C [Example 3, (5)-3-(2-(4-((7-(2-ethyl-3-methylbutyl)-7H-pyrrolo[2,3-d]pyrimidin-2-yl)amino)-1H-pyrazol-1-yl)acetyl) oxazolidin-2-one] | < 100 nM | < 100 nM | 1000 to 10000 nM
3 | 100 to 1000 nM | CCC(CC)Cn1ccc2cnc(Nc3cnn(CC(N)=O)c3)nc21 [Example 7, 2-(4-((7-(2-ethylbutyl)-7H-pyrrolo[2,3-d]pyrimidin-2-yl)amino)-1H-pyrazol-1-yl) acetamide] | < 100 nM | < 100 nM | –
4 | – | CC[C@@H](Cn1ccc2cnc(Nc3cnn(C4CCNC4=O)c3)nc21)C(C)C (stereo partly drawn) [Example 8] | < 100 nM | < 100 nM | 1000 to 10000 nM
